# The source made the active and inactive calls.
# What was measured:
# Cytochrome P450 3A4 = Cytochrome P450 3A4 (Homo sapiens, UniProt P08684);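 further: CYP3A4 tested as one member of a cytochrome P450 panel screen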
# [1] = Luminescence Cell-Based Dose Retest to Confirm Inhibitors of Cancer Stem Cells. [Related pubchem assays (depositor defined):AID2717, AID2721]; assay type: functional; details: Homo sapiens
# Cytochrome P450 1A2 = target: T1, Cytochrome P450 1A2 (Homo sapiens, UniProt P05177);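 further: PubChem cytochrome P450 panel assay, CYP1A2 panel member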
# T1 sequence (P05177 whole entry): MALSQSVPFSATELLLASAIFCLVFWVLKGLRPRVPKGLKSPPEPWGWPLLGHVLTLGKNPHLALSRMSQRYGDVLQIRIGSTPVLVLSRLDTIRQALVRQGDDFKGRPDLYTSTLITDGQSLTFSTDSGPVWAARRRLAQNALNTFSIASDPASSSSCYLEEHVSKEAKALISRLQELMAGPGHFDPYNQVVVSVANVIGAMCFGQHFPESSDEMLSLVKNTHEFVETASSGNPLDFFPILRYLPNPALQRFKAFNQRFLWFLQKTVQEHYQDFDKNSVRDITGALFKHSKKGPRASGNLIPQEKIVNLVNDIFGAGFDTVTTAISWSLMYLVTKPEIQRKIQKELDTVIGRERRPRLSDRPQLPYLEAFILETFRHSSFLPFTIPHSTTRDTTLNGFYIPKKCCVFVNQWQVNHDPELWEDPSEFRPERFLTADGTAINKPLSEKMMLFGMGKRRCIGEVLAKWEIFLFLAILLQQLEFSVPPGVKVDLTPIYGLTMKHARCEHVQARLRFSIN
# [2] = alpha-synuclein stem-loop luciferase translation blockers – H4 neuroglioma cells, luminescence, confirmation (AID 1988); assay type: functional, cell-based
# [3] = Luminescence Cell-Based Dose Response HTS to Identify Inhibitors of 5'UTR Stem-Loop Driven Prion Protein mRNA Translation in H4 Neuroglioblastoma Cells. [Related pubchem assays: 1827 (Project Summary), 1813 (Primary HTS)]; assay type: functional
# [4] = luciferase reporter signal suppression in cells – H4 neuroglioma cells, luminescence, dose response (AID 1990); assay type: functional, cell-based
# Cytochrome P450 2C9 = Cytochrome P450 2C9 (Homo sapiens, UniProt P11712)
# Chain of Cytochrome P450 2C9 (P11712 whole entry): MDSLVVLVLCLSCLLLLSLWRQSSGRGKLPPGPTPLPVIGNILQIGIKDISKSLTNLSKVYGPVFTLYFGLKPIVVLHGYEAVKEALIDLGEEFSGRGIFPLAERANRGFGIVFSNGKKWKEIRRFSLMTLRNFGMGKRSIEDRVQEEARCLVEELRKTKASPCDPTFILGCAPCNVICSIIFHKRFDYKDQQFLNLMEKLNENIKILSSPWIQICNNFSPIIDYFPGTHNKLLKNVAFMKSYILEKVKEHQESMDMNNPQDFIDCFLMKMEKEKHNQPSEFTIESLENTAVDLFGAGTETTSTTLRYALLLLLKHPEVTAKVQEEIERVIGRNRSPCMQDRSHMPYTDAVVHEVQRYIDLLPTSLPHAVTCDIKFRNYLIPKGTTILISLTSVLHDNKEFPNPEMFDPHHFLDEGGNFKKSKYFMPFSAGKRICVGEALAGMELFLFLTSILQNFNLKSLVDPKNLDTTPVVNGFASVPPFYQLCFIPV
# Cytochrome P450 2C19 = Cytochrome P450 2C19 (Homo sapiens, UniProt P33261); test: Cytochrome panel assay with activity outcomes. Panel member name: p450-cyp2c19 Compounds with AC50 equal or less than 10 uM are considered active; assay type: functional; details: read-out: AC50
# Chain of Cytochrome P450 2C19 (P33261 whole entry): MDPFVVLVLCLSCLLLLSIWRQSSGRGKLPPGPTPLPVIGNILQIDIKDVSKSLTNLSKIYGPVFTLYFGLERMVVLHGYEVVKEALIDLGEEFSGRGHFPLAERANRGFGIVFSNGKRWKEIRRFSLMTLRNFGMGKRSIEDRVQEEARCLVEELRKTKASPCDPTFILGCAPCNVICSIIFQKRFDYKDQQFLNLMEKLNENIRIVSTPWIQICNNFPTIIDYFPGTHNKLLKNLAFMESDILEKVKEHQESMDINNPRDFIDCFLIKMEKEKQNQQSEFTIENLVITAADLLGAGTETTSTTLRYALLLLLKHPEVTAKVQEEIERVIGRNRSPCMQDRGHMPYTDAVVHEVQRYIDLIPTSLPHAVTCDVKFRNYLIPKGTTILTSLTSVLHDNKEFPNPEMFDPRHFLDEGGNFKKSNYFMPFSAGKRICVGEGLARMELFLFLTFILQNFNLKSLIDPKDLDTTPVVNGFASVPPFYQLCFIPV
# [5] = NIH3T3 cell viability loss – ATP luminescence, mouse fibroblasts, counter-screen, dose response (AID 2010); assay type: functional, cell-based;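 further: cells exposed to compound for about 90 hours before reading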
# [6] = Trypanosoma cruzi growth suppression in host cells – NIH3T3 host cells, beta-gal luminescence, confirmation (AID 2044); assay type: functional, cell-based;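 further: intracellular parasites grown in NIH/3T3 mouse fibroblasts as host cells; luminescent beta-galactosidase reporter signal from transgenic T. cruzi replicating inside host cells; inhibitors lower the luminescence signal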
# [7] = viability of uninfected HEp-2 cells – cell-based, HTS, cytotoxicity control for RSV inhibitor project, dose response (AID 2410); assay type: functional; details: human respiratory syncytial virus
# H4 = test: Luminescence Cell-Based Dose Response HTS to Identify Activators of 5'UTR Stem-Loop Driven Prion Protein mRNA Translation in H4 Neuroglioblastoma Cells. [Related pubchem assays: 1829 (Project Summary), 1814 (Primary HTS)]; assay type: functional; details: Homo sapiens
# Cytochrome P450 2D6 = Cytochrome P450 2D6 (Homo sapiens, UniProt P10635);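 further: CYP2D6 member of a cytochrome P450 panel assay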
# Chain of Cytochrome P450 2D6 (P10635 whole entry): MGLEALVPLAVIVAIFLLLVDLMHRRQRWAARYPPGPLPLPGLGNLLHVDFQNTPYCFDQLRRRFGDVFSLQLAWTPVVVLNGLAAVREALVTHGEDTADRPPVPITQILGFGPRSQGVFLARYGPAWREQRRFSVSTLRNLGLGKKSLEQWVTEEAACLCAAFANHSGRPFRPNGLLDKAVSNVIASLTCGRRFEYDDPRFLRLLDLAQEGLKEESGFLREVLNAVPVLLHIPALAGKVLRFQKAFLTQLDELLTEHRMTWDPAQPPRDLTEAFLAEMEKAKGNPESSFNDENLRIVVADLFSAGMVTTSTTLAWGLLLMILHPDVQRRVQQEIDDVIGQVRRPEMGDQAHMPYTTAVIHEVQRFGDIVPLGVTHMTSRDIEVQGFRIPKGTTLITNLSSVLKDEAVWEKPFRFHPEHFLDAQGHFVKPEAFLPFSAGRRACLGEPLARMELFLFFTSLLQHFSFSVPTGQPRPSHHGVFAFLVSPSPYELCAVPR
# [8] = target: T2, Rac GTPase-activating protein 1 (Homo sapiens, UniProt Q9H0H5); test: blockers of MgcRacGAP-driven Rac1 GTP hydrolysis – biochemical, ADP Hunter fluorescence, primary and confirmatory, confirmation (AID 624330); assay type: functional
# T2 sequence (Q9H0H5 whole entry): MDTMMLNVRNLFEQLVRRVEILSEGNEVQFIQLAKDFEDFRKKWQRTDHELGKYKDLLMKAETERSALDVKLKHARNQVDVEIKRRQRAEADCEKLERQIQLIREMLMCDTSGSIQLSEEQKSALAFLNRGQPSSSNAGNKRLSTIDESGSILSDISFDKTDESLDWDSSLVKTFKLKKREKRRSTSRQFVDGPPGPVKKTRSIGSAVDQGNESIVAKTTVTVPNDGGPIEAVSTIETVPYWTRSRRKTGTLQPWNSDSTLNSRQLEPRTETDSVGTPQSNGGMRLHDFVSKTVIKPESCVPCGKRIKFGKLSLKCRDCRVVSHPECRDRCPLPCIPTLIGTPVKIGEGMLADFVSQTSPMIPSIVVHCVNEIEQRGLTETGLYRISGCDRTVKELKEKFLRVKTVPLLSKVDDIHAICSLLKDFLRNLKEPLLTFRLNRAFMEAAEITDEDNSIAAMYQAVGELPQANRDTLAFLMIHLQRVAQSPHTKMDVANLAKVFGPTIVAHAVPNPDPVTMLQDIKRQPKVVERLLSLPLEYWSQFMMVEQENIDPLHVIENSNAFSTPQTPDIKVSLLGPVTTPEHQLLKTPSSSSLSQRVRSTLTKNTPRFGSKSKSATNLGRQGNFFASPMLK
# [9] = target: T3, Zinc finger protein mex-5 (Caenorhabditis elegans, UniProt Q9XUB2); test: potency of MEX-5 RNA-binding blockers – biochemical, C. elegans, fluorescence polarization, dose response (AID 1960)
# T3 sequence (Q9XUB2 whole entry): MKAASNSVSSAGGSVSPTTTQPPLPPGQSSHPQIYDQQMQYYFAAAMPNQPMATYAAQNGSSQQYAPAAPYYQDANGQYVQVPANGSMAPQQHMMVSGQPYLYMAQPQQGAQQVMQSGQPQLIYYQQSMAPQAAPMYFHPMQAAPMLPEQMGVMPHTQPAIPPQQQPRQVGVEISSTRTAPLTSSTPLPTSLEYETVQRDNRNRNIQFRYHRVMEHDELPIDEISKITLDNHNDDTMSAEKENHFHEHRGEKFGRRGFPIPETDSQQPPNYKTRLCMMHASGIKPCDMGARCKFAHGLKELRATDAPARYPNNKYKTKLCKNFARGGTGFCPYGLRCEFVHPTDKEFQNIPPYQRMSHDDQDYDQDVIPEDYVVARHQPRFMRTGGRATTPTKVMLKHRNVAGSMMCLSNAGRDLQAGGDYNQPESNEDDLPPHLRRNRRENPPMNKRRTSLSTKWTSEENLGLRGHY
# [10] = target: T4, RNA-binding protein pos-1 (Caenorhabditis elegans, UniProt G5EF15); test: disruptors of C. elegans POS-1 RNA interaction – biochemical, fluorescence polarization, dose response (AID 1964);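 further: purified POS-1 fused to maltose binding protein made in E. coli; potency of compounds blocking POS-1 binding to fluorescent RNA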
# T4 sequence (G5EF15 whole entry): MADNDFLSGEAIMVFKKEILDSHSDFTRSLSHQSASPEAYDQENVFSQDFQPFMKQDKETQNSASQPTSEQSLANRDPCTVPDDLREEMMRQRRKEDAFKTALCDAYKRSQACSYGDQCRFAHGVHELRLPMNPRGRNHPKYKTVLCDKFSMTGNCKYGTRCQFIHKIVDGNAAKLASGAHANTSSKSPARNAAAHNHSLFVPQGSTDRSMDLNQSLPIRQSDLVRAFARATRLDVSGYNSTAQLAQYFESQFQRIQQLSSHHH
# Chain of Cytochrome P450 3A4 (P08684 whole entry): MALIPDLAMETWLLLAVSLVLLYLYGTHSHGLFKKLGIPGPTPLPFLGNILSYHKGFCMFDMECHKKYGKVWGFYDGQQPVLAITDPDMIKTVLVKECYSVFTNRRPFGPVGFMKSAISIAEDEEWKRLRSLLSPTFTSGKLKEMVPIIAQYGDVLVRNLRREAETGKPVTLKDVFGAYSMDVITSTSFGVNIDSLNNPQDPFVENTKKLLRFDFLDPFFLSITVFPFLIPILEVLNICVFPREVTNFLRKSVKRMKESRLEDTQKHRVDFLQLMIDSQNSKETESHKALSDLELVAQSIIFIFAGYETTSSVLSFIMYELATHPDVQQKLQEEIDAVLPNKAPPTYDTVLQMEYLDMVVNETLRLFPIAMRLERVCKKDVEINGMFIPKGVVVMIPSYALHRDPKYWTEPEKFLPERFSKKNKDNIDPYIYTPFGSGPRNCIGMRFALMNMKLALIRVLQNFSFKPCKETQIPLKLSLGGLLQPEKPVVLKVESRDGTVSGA
Structure (SMILES),AC50 (Cytochrome P450 3A4),EC50 [2],EC50 [3],EC50 [4],further results
Nc1nc(SCc2ccc([N+](=O)[O-])cc2)c2ncn([C@@H]3O[C@@H](CO)[C@@H](O)[C@H]3O)c2n1,15.8 µM (inconclusive),,,,
Cc1cc(NCCCn2ccnc2)n2nc(C)c(-c3ccc(Cl)cc3)c2n1,,,,,AC50 [1]: 6.35 µM (active)
O=C1C(Cc2ccccc2)NC(=S)N1c1ccccc1 (stereo unspecified),2.24 µM (inconclusive),,,,AC50 (Cytochrome P450 1A2): 2.24 µM (inconclusive)
CC(C)CCn1cnc2c(c1=O)c1nc3ccccc3nc1n2Cc1ccc2c(c1)OCO2,,> 120 µM (not active),> 120 µM (not active),> 120 µM (not active),
S=C(NCc1ccccc1)NCc1ccc(CNC(=S)NCc2ccccc2)cc1,,> 120 µM (not active),> 120 µM (not active),> 120 µM (not active),
CCc1c(C)nc(N)n2c(SCC(=O)Nc3ccccc3OC)nnc12,,> 120 µM (not active),> 120 µM (not active),> 120 µM (not active),
CCS(=O)(=O)c1nc(S(=O)(=O)c2ccc(C)cc2)c(N2CC(C)CC(C)C2)s1 (stereo unspecified),,> 120 µM (not active),> 120 µM (not active),> 120 µM (not active),
COc1ccc(-c2nc3cnc(N4CCNCC4)nc3n(CCC#N)c2=O)cc1,12.6 µM (inconclusive),,,,AC50 (Cytochrome P450 1A2): 15.8 µM (inconclusive)
CCC(C)[C@H](NC(=O)N1CCCC1)C(=O)O (stereo partly specified),,> 120 µM (not active),> 120 µM (not active),> 120 µM (not active),
COc1ccc(/C=C\C(=O)Nc2ccccc2C(=O)O)cc1OC,39.8 µM (inconclusive),,,,AC50 (Cytochrome P450 1A2): 39.8 µM (inconclusive); AC50 (Cytochrome P450 2C9): 15.8 µM (inconclusive)
COc1ccc(CN2CCN(Cc3cccn3-c3ncccn3)CC2CCO)c(C)c1C (stereo unspecified),,12.1 µM (active),> 120 µM (not active),> 120 µM (not active),
Cc1ccc(-c2csc(NC(=S)NC(=O)/C=C/c3ccco3)n2)cc1,15.8 µM (inconclusive),,,,AC50 (Cytochrome P450 2C9): 0.282 µM (inconclusive)
CCOc1ccc(N(C(C)C(=O)NC(C)CC)S(C)(=O)=O)cc1 (stereo unspecified),14.1 µM (inconclusive),,,,AC50 (Cytochrome P450 2C19): 7.94 µM (inconclusive)
CCOC(=O)C1=C(C)N2C(=C(C#N)[C@@H]1c1ccc(C(=O)OC)cc1)SC[C@@]2(O)C(C)(C)C,,,,,AC50 [1]: 0.33 µM (active)
Cc1cccc(N2CCN(C(=O)CC(NC(=O)c3ccccc3)c3ccccc3)CC2C)c1 (stereo unspecified),,> 120 µM (not active),> 120 µM (not active),> 120 µM (not active),
O=C(NCCCN1CCCC1=O)Nc1ccc(F)c(Cl)c1,28.2 µM (inconclusive),,,,AC50 (Cytochrome P450 2C19): 39.8 µM (inconclusive); AC50 (Cytochrome P450 1A2): 22.4 µM (inconclusive)
O=C(COCC(=O)Nc1cccc(C(F)(F)F)c1)Nc1cccc(C(F)(F)F)c1,,,,,AC50 [1]: 5.16 µM (active)
N#Cc1ccc(CN2CCC3(CC2)CCN(C(=O)c2ccncc2)CC3)cc1,12.6 µM (inconclusive),,,,
O=C(Nc1ccc(-c2csc(Nc3cccc(C(F)(F)F)c3)n2)cc1)c1ccccc1,,,,,EC50 [5]: 7.93 µM (active); EC50 [6]: 0.859 µM (active); AC50 [1]: 1.54 µM (active); CC50 [7]: 17.2 µM (active)
O=c1c2[nH]cnc2n(-c2ccc(F)cc2)c(=O)n1Cc1ccccc1,,> 120 µM (not active),39.3 µM (active),> 120 µM (not active),
CCCOc1ccc(NC(=O)CC2C(=O)N(c3ccc(OCC)cc3)C(=S)N2C2CC2)cc1 (stereo unspecified),,12.1 µM (active),> 120 µM (not active),> 120 µM (not active),
Nc1ccc(C(=O)n2c3ccccc3c3ccccc32)cc1,,,9.6 µM (active),9.05 µM (active),
CC(C)C(=O)Nc1cc2c(cc1C(=O)c1ccccc1)OCCO2,22.4 µM (inconclusive),,,,
Cc1ccc(C(=O)NC2CCCCCC2)cc1N1CCCC1=O,25.1 µM (inconclusive),,,,AC50 (Cytochrome P450 2C9): 25.1 µM (inconclusive)
C=CCC(C)(NCc1ccccc1)c1ccco1 (stereo unspecified),15.8 µM (inconclusive),,,,AC50 (Cytochrome P450 2C9): 0.0355 µM (inconclusive)
COc1ccc(/C=N/NC(=S)NC2CCS(=O)(=O)C2)cc1OC (stereo unspecified),22.4 µM (inconclusive),,,,
COc1cc(/C=N/NC(=O)c2ccc(CN(C)S(=O)(=O)c3ccc(C)cc3)cc2)ccc1O,,,,,AC50 [1]: 2.5 µM (active)
CCOC(=O)c1ccc(-c2ccc(/C=N/NC(=O)c3cncc(Br)c3)o2)cc1,,,,,EC50 (H4): 117 µM (active)
Cc1c(C(=O)N/N=C/c2ccccc2)sc(=S)n1C,25.1 µM (inconclusive),,,,AC50 (Cytochrome P450 2C19): 25.1 µM (inconclusive); AC50 (Cytochrome P450 2D6): 0.01 µM (inconclusive)
O=C(/C=C/c1ccc(O)c(O)c1)OC(Cc1ccc(O)c(O)c1)C(=O)O (stereo unspecified),,,,,IC50 [8]: 35 µM (active); EC50 [9]: 8.75 µM (active); EC50 [10]: 13.6 µM (active)
